Measurements: the NIST ThermoML archive (doi:10.1016/j.jct.2017.02.022)

Experiments:
[1] = 101.3 kPa, Liquid; for speed of sound: Frequency=3 MHz, Sing-around technique in a fixed-path interferometer; for mass density: Vibrating tube method
[2] = refractive index (Na D-line) (dimensionless); details: 101.3 kPa, Liquid, Standard Abbe refractometry
[3] = xn = mol fraction of the nth substance listed; details: 101.3 kPa, Liquid, x2 = 0; for speed of sound: Frequency=3 MHz, Sing-around technique in a fixed-path interferometer; for mass density: Vibrating tube method
[4] = refractive index (Na D-line) (dimensionless); xn = mol fraction of the nth substance listed; details: 101.3 kPa, Liquid, Standard Abbe refractometry, x2 = 0
[5] = molar heat capacity at constant pressure; details: 101.33 kPa, Liquid, Small sample (50 mg) DSC

CCCO [propan-1-ol]
Details	mass density, [1] [kg/m3]	refractive index, [2]	speed of sound, [1] [m/s]
298 K	800	1.383	1208
303 K	796	1.382	1191
308 K	792	1.38	1174
313 K	789	1.378	1158

CCCCCO [pentan-1-ol] + COS(=O)(=O)[O-].Cn1cc[n+](C)c1
Details	mass density, [3] [kg/m3]	refractive index, [4]	speed of sound, [3] [m/s]
298 K	811	1.408	1276
303 K	807	1.407	1259
308 K	803	1.406	1242
313 K	800	1.404	1226

CCn1cc[n+](C)c1.COS(=O)(=O)[O-] [1-ethyl-3-methylimidazolium methylsulfate]
Details	mass density, [1] [kg/m3]	molar heat capacity at constant pressure, [5] [J/K/mol]	refractive index, [2]	speed of sound, [1] [m/s]
298 K	1292	313.3	1.48	1762
303 K	1289	319.9	1.479	1750
308 K	1285	326.6	1.478	1739
313 K	1282	333.2	1.476	1727

CCCCO [butan-1-ol] + COS(=O)(=O)[O-].Cn1cc[n+](C)c1
Details	mass density, [3] [kg/m3]	refractive index, [4]	speed of sound, [3] [m/s]
298 K	806	1.397	1240
303 K	802	1.395	1224
308 K	798	1.392	1206
313 K	794	1.389	1190

CCCCCO [pentan-1-ol] + CCn1cc[n+](C)c1.COS(=O)(=O)[O-]
Details	mass density, [3] [kg/m3]	refractive index, [4]	speed of sound, [3] [m/s]
298 K	811	1.408	1276
303 K	807	1.407	1259
308 K	803	1.406	1242
313 K	800	1.404	1226

CCCO [propan-1-ol] + CCn1cc[n+](C)c1.COS(=O)(=O)[O-]
Details	mass density, [3] [kg/m3]	refractive index, [4]	speed of sound, [3] [m/s]
298 K	800	1.383	1208
303 K	796	1.382	1191
308 K	792	1.38	1174
313 K	789	1.378	1158

CCCCO [butan-1-ol]
Details	mass density, [1] [kg/m3]	refractive index, [2]	speed of sound, [1] [m/s]
298 K	806	1.397	1240
303 K	802	1.395	1224
308 K	798	1.392	1206
313 K	794	1.389	1190

CCCCCO [pentan-1-ol]
Details	mass density, [1] [kg/m3]	refractive index, [2]	speed of sound, [1] [m/s]
298 K	811	1.408	1276
303 K	807	1.407	1259
308 K	803	1.406	1242
313 K	800	1.404	1226

CCCO [propan-1-ol] + COS(=O)(=O)[O-].Cn1cc[n+](C)c1
Details	mass density, [3] [kg/m3]	refractive index, [4]	speed of sound, [3] [m/s]
298 K	800	1.383	1208
303 K	796	1.382	1191
308 K	792	1.38	1174
313 K	789	1.378	1158

COS(=O)(=O)[O-].Cn1cc[n+](C)c1 [1,3-dimethylimidazolium methylsulfate]
Details	mass density, [1] [kg/m3]	molar heat capacity at constant pressure, [5] [J/K/mol]	refractive index, [2]	speed of sound, [1] [m/s]
298 K	1329	298.1	1.483	1811
303 K	1322	303.1	1.481	1799
308 K	1319	308	1.48	1787
313 K	1315	312.9	1.479	1775

CCCCO [butan-1-ol] + CCn1cc[n+](C)c1.COS(=O)(=O)[O-]
Details	mass density, [3] [kg/m3]	refractive index, [4]	speed of sound, [3] [m/s]
298 K	806	1.397	1240
303 K	802	1.395	1224
308 K	798	1.392	1206
313 K	794	1.389	1190
